# Test results as given in patent EP0714912B1, “GMP-140 ligand” (THE BOARD OF REGENTS OF THE UNIVERSITY OF OKLAHOMA, priority 1990, dated 1992).
# Target: T1, immobilized GMP-140 (Homo sapiens, UniProt P16109)
# T1 construct: from tissue; host or cells: outdated human platelet packs
# T1 sequence (P16109 42-830): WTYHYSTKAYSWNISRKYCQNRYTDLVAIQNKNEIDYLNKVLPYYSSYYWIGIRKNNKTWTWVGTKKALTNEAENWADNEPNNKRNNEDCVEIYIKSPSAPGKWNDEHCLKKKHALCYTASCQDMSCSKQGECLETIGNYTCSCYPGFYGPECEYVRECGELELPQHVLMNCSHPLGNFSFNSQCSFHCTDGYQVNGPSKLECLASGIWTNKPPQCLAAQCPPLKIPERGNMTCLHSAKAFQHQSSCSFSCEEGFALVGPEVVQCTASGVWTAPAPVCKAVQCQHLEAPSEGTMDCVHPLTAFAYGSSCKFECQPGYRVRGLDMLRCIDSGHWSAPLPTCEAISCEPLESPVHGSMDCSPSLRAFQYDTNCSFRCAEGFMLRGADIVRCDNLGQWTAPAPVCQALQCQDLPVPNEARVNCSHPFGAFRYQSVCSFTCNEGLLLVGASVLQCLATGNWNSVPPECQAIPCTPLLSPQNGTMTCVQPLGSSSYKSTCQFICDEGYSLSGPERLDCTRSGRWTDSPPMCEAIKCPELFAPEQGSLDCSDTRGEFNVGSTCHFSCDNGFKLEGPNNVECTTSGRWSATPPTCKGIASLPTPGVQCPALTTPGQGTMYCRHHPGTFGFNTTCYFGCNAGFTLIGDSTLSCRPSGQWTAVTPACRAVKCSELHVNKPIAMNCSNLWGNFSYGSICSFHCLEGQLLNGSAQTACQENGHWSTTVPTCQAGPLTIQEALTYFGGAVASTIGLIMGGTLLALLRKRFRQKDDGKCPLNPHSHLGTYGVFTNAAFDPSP
# Test: Neutrophil adhesion to purified GMP-140 immobilized on plastic wells (myeloperoxidase read-out)
# Assay type: cell-based
# Conditions: concentrations up to 300 µM
# Excerpt: Peptides were screened for their ability to inhibit neutrophil adhesion to purified GMP-140 immobilized on plastic wells, using the assay described by Geng, et al., Nature 343, 757-760 (1990).
# Human neutrophils are isolated from heparinized whole blood by density gradient centrifugation on Mono-Poly resolving media, Flow Laboratories. Neutrophil suspensions are greater than 98% pure and greater than 95% viable by trypan blue exclusion. For adhesion assays, neutrophils are suspended at a concentration of 2 x 10^6 cells/ml in Hanks' balanced salt solution containing 1.26 mM Ca^2+ and 0.81 mM Mg^2+ (HBSS, Gibco) with 5 mg/ml human serum albumin (HBSS/HSA). Adhesion assays are conducted in triplicate in 96-well microtiter plates, Corning, incubated at 4°C overnight with 50 microliters of various protein solutions.
# GMP-140 is plated at 5 micrograms/ml and the control proteins: human serum albumin (Alb), platelet glycoprotein IIb/IIIa (IIb), von Willebrand factor (vWF), fibrinogen (FIB), thrombomodulin (TM), gelatin (GEL) or human serum (HS), are added at 50 micrograms/ml. All wells are blocked for 2 h at 22°C with 300 microliters HBSS containing 10 mg/ml HSA, then washed three times with HBSS containing 0.1% Tween-20 and once with HBSS. […] Inhibition is read as a lower percent adhesion, so that a value of 5% means that 95% of the specific adhesion was inhibited. […]
smiles,measurement,value
CC(=O)N[C@H]1[C@H](O[C@H]2[C@@H](O)[C@@H](CO)O[C@@H](O[C@H]3[C@H](O)[C@@H](O)C(O)O[C@@H]3CO)[C@@H]2O)O[C@H](CO)[C@@H](O[C@@H]2O[C@H](CO)[C@H](O)[C@H](O)[C@H]2O)[C@@H]1O[C@@H]1O[C@@H](C)[C@@H](O)[C@@H](O)[C@@H]1O (stereo partly shown) [LNFIII],"effect on binding of neutrophils to purified, immobilized GMP-140",absolutely no effect
